From paper PMC10451377, “Rationally Designed Pyrimidine Compounds: Promising Novel Antibiotics for the Treatment of Staphylococcus aureus-Associated Bovine Mastitis” (Antibiotics, 2023)
In brackets after ≈: the same amount, converted by molar mass. Where two headings read alike, the source gives them in different places.

Experiments:
[1] = set-up: method as in PMID 20421948; details: presence of water and oxygen; cited from earlier work
[2] = tested on: Staphylococcus aureus CMRSA-2; assay: Broth microdilution MIC; assay type: cell-based
Text: (§1) Reference strains for this study (S. aureus ATCC 29213, ATCC 29740 [bovine mastitis strain Newbould], S. epidermidis ATCC 12228, E. coli ATCC 35695, E. faecalis ATCC 29212) were obtained from the American Type Culture Collection (ATCC, Rockville, MD). S. aureus strains CMRSA-10 and CMRSA-2 were obtained from the Laboratoire de santé publique du Québec (LSPQ, Sainte-Anne-de-Bellevue, QC, Canada) and are Canadian CA-MRSA USA-300 and HA-MRSA USA-100 clones, respectively. The strain E. coli imp4213 (lptD), used as a control in MIC assays, is a derivative of E. coli ATCC 35695 (E. coli MC4100) with an increased membrane permeability. […] Other MRSA strains used in this study are clinical isolates of human origin obtained from the microbiology laboratory of the Centre Hospitalier Universitaire de Sherbrooke (CHUS, Sherbrooke, QC, Canada). Bovine mastitis strains (S. aureus, S. chromogenes, S. haemolyticus, S. hominis, S. simulans) were obtained from the Canadian Bovine Mastitis and Milk Quality Research Network (CBRQMN, St-Hyacinthe, QC, Canada). Among these strains, S. aureus 2117 is a high producer of biofilm and was used in the biofilm-eradication assay. S. epidermidis isolates were provided by Centre de Recherche en Infectiologie (CRI) de Québec (Québec, QC, Canada).

[3] = tested on: Staphylococcus aureus CMRSA-10; assay: Broth microdilution MIC; assay type: cell-based
Text: as §1

[4] = tested on: Bacillus subtilis xpt-lacZ; assay: Broth microdilution MIC; assay type: cell-based; details: B. subtilis xpt-lacZ, read-out: Broth Microdilution MIC
[5] = tested on: S. aureus guanine riboswitch; set-up: method as in PMID 20421948; details: cited from earlier work
S. aureus = tested on: S. aureus; set-up: method as in PMID 20421948; details: compared with PC1; cited from earlier work
MTT assay [6] = assay type: cell-based; details: human, HepG2 cells
[7] = tested on: Enterococcus faecalis ATCC 29212; assay: Broth microdilution MIC; details: ATCC29212, read-out: Broth Microdilution MIC
[8] = tested on: all reference staphylococci strains tested, including MRSA; assay: Broth microdilution MIC, summary over reference staphylococci; details: Staphylococcus aureus, read-out: MIC ranging, against all reference staphylococci strains tested
[9] = tested on: HepG2 and MAC-T cells versus S. aureus Newbould; assay: Selectivity ratios over both assays and both cell lines; assay type: cell-based; details: over MTT and LDH assays
Protocol: All CC50 values are reported in Table 3, and plots are provided in the Supplementary Information (Supplementary Figure S2). PC371 had no effect on cell viability even at the highest concentrations tested (CC50 > 600 μM) in both the MTT and the LDH assay and for the two cell lines tested. For the three other compounds, in both cell lines and both assays, a correlation was observed between the effect on cell viability and the length of their aliphatic chain. CC50 of PC372 (5 carbons) was higher than that of PC206 (6 carbons), and both were higher than that of PC383 (10 carbons). Indeed, for the MAC-T cells in the MTT assay, the values were >600 μM (PC372), 317 μM (PC206), and 13.5 μM (PC383). Again, for the MAC-T cell line, the values for the LDH assay were >600 μM (PC372 and PC206) and 23.6 μM (PC383). Similar results were obtained with the HepG2 cells. […] Overall, the MAC-T cells tolerated better exposure to the compounds than the HepG2 cells. To assess the selectivity of the PC2 analogs towards S. aureus, selectivity ratios were calculated. These ratios were obtained by dividing the cytotoxicity CC50 values of an analog by its MIC against S. aureus Newbould. It was not possible to calculate the selectivity ratio for PC371 as its CC50 and MIC values exceeded the maximum values tested.

MTT assay [10] = assay type: cell-based; details: bovine, MAC-T cells, 24 h
[11] = tested on: Staphylococcus epidermidis ATCC 12228; assay: Broth microdilution MIC; details: ATCC12228, read-out: Broth Microdilution MIC
[12] = tested on: Escherichia coli ATCC 35695; assay: Broth microdilution MIC; details: ATCC35695, read-out: Broth Microdilution MIC
LDH release assay [13] = assay type: cell-based; details: bovine, MAC-T cells, 24 h
[14] = tested on: Staphylococcus aureus ATCC 29213; assay: Broth microdilution MIC; details: ATCC29213, read-out: Broth Microdilution MIC
LDH release assay [15] = assay type: cell-based; details: human, HepG2 cells
[16] = tested on: Escherichia coli ΔlptD4213; assay: microbe, parasite or virus in culture; assay type: cell-based; details: read-out: Broth Microdilution MIC
Text: as §1

[17] = tested on: guanine riboswitch-lacZ fusion construct (xpt-lacZ); assay: Riboswitch regulation assay (lacZ-gene reporter); assay type: cell-based, B. subtilis
Text: The novel pyrimidine compounds, especially PC206, display specificity and potency against some staphylococci but not the other bacterial genus (Table 1 and Table 2). Because they are structurally derived from PC1 and PC2, these novel antibiotic candidates are expected to have the same mode of action. […] To verify this hypothesis, a strain of B. subtilis with a guanine riboswitch-lacZ fusion construct (named xpt-lacZ) integrated in its chromosome was exposed to these new antimicrobials. […] Therefore, it is an adequate reporter species. The metabolization of substrate ONPG into colored ONP was normalized by the bacterial suspension absorbance at 600 nm (Miller units) and relativized to the untreated condition.
β-galactosidase gene expression in the presence of the new pyrimidine analogs was studied, using an xpt-lacZ transcriptional fusion construct integrated in the genome of B. subtilis as previously described. Briefly, cultures were grown for 5 h at 35 °C in CAMHB, from an initial optical density of 0.05 at 600 nm (OD600), and then diluted 1:20 and in the presence of different concentrations of the compounds tested. Cultures were centrifuged for 10 min at 13,100 rpm, the supernatant was discarded, and pellets were suspended in a Z-buffer (NaH2PO4 40 mM, Na2HPO4 60 mM, MgSO4 1 mM, KCl 10 mM). Cultures OD600 were measured, and bacteria were then lysed with lysozyme (1 mg/mL) and β-mercaptoethanol 50 mM for 30 min. Lysates were centrifuged for 10 min at 13,100 rpm, and supernatants were incubated for 5 min at 30 °C with the substrate orthonitrophenyl-β-galactoside (ONPG; Sigma Aldrich). Reactions were stopped with Na2CO3 1M, supernatants OD420 were measured, and Miller units were calculated. A decrease in β-galactosidase activity indicated binding of the test compound to the riboswitch. Guanine and oxacillin were used as […] controls, respectively. The formula to measure Miller units is as follows: Millerunits=1000×OD420/t·v·OD600
Here, t represents the time of incubation with ONPG, and v represents the volume of the reaction.

[18] = tested on: all tested bacterial strains, including non-staphylococci strains; assay: Broth microdilution MIC, summary over all strains tested; details: read-out: MIC against all tested bacterial strains
[19] = CMRSA2, S. aureus CMRSA-2, read-out: Broth Microdilution MIC
[20] = CMRSA10, S. aureus CMRSA-10, read-out: Broth Microdilution MIC

Structure (SMILES) | Chemical stability [1] | Binding to the guanine riboswitch [5] | CC50 at 24 h (MTT assay [6]) | MIC [7] | Selectivity ratio (CC50/MIC against S. aureus Newbould), overall [9] | CC50 at 24 h (MTT assay [10]) | MIC [11] | MIC [12] | MIC [2, 19] | MIC [3, 20] | CC50 at 24 h (LDH release assay [13]) | MIC [4] | MIC [14] | CC50 at 24 h (LDH release assay [15]) | MIC [16] | other results
Nc1nc(N)c(N)c(O)n1 [PC1, 2,5,6-triaminopyrimidine-4-one, reference compound] | chemically unstable | binding the guanine riboswitch of S. aureus |  |  |  |  |  |  |  |  |  |  |  |  |  | MIC ([2]; CMRSA2, S. aureus CMRSA-2, in the presence of 1.5 mM DTT, read-out: Broth Microdilution MIC): 1 µg/mL; MIC ([3]; CMRSA10, S. aureus CMRSA-10, in the presence of 1.5 mM DTT, read-out: Broth Microdilution MIC): 2 µg/mL; MIC ([4]; in the presence of 1.5 mM DTT): > 128 µg/mL
Nc1cc(O)nc(N)n1 [PC2] | more chemically stable | bind the riboswitch ex vivo |  |  |  |  |  |  |  |  |  |  |  |  |  | Antimicrobial activity against S. aureus (S. aureus): much lower antimicrobial activity
CCCCCNc1cc(N)nc(N)n1 [PC372] |  |  | 341 ± 32 µM | > 128 µg/mL | above 3.9 | > 600 µM | 8 µg/mL (≈ 41 µM) | > 128 µg/mL | 16 µg/mL (≈ 81.9 µM) | 8 µg/mL (≈ 41 µM) | > 600 µM | 128 µg/mL (≈ 656 µM) | 16 µg/mL (≈ 81.9 µM) | 394 ± 15 µM | > 128 µg/mL | MIC [8]: 8 to 16 µg/mL (≈ 41 to 81.9 µM); Miller units remaining, relative to the untreated condition ([17]; 64 µg/mL): 50%
CCCCCCCCCCNc1cc(N)nc(N)n1 [PC383] |  |  | 11.7 ± 5.8 µM | 4 µg/mL (≈ 15.1 µM) | ~1 | 13.5 ± 1.5 µM | 4 µg/mL (≈ 15.1 µM) | 16 µg/mL (≈ 60.3 µM) | 4 µg/mL (≈ 15.1 µM) | 4 µg/mL (≈ 15.1 µM) | 23.6 ± 8.4 µM | 4 µg/mL (≈ 15.1 µM) | 4 µg/mL (≈ 15.1 µM) | 6.6 ± 0.7 µM | 8 µg/mL (≈ 30.1 µM) | MIC [18]: 4 to 16 µg/mL (≈ 15.1 to 60.3 µM); Effect on Miller units ([17]; highest evaluated dose 2 µg/mL): did not impact Miller units’ expression
